Data on six compounds can be found in ChEMBL document CHEMBL1201862, “PubChem BioAssay data set” (2004).

Molecules are shown by their SMILES.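 Five concentrations, 48 hours, 96-well plates. GI50 is the concentration that inhibits growth by half.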 The source made the active and inactive calls. No stated cut-off is given here; in the data, active = GI50 up to about 1.1 µM and inactive = higher.

Among the test systems are 786-0; A549; ACHN; COLO 205; DU-145; HL-60; HOP-62; HT-29; IGROV-1; K562; KM12; M14; MDA-MB-231; NCI-H23; NCI-H522; RPMI-8226; SK-MEL-28; SNB-19; SR; UACC-62.
Assay in all cases: inhibition of tumour cell growth, NCI panel, 48 h

For `N=C(N)/N=C(\N)Nc1ccc(C(=O)O)cc1`, the GI50 in the experiment on 786-0, in the experiment with A549, in the experiment with ACHN, in the experiment with COLO 205, in the experiment on DU-145 and in the experiment with HL-60 was > 100 µM (inactive) each time. In addition, the GI50 in the experiment with HOP-62, in the experiment with HT-29, with IGROV-1, with K562, in the experiment on KM12 and in the experiment with M14 was > 100 µM (inactive) throughout. Moreover, the GI50 with MDA-MB-231, with NCI-H23, in the experiment on NCI-H522, with RPMI-8226, with SK-MEL-28 and in the experiment on SNB-19 was > 100 µM (inactive) in each case. Also, the GI50 in the experiment on SR and in the experiment on UACC-62 was > 100 µM (inactive) in each case.

As to `O=C(Cc1nc2ncccc2[nH]c1=O)c1c[nH]c2ccccc12`, the GI50 is 18.2 µM (inactive) with 786-0; 20 µM (inactive) in the experiment on A549; 16.5 µM (inactive) in the experiment on ACHN; 16.3 µM (inactive) in the experiment on COLO 205; 17.5 µM (inactive) in the experiment with DU-145; 32.1 µM (inactive) with HL-60. Besides, the GI50 in the experiment with HOP-62 was 18.7 µM (inactive); in the experiment with HT-29, 23 µM (inactive); with IGROV-1, 17.3 µM (inactive); in the experiment with K562 it was 21.4 µM (inactive); in the experiment with KM12 it was 17.5 µM (inactive); in the experiment with M14 it was 21 µM (inactive). For the same compound, the GI50 in the experiment with MDA-MB-231 was 16.7 µM (inactive); in the experiment with NCI-H23, 21.6 µM (inactive); in the experiment with NCI-H522, 16.6 µM (inactive); with RPMI-8226 it was 16.7 µM (inactive); with SK-MEL-28, 15.1 µM (inactive); in the experiment on SNB-19 it was 18.3 µM (inactive). Also, the GI50 was 30 µM (inactive) with SR and 16.8 µM (inactive) in the experiment with UACC-62.

On to `O=[N+]([O-])c1ccc(C2ON=C(c3ccccc3)N2C23CC4CC(CC(C4)C2)C3)cc1` (stereo not given), for which the GI50 with 786-0, with A549, in the experiment with ACHN, in the experiment with COLO 205, with DU-145 and with HL-60 was > 10 µM (inactive) each time. In addition, the GI50 in the experiment with HOP-62, with HT-29, in the experiment on IGROV-1, in the experiment on K562, with KM12 and in the experiment on M14 was > 10 µM (inactive) each time. Moreover, the GI50 in the experiment on MDA-MB-231, in the experiment with NCI-H23, in the experiment with NCI-H522, in the experiment with RPMI-8226, in the experiment on SK-MEL-28 and in the experiment with SNB-19 was > 10 µM (inactive) in each case. The GI50 in the experiment on SR and with UACC-62 was > 10 µM (inactive) each time.

`C#C[C@]1(O)CC[C@H]2[C@@H]3CCc4cc(OC(=O)c5cccc6cc7ccccc7nc56)ccc4[C@H]3CC[C@@]21C`: the GI50 in the experiment on 786-0 was 27.5 µM (inactive); in the experiment on A549, 34 µM (inactive); in the experiment with ACHN, 49 µM (inactive); with COLO 205, 11 µM (inactive); in the experiment on DU-145, 23.5 µM (inactive); in the experiment on HL-60 it was 8.75 µM (inactive). The GI50 with HOP-62 was 38.2 µM (inactive); in the experiment on HT-29 it was 33.9 µM (inactive); in the experiment with IGROV-1, 14.6 µM (inactive); in the experiment on K562 it was > 100 µM (inactive); with KM12 it was 20 µM (inactive); in the experiment with M14, 31 µM (inactive). Besides, the GI50 in the experiment on MDA-MB-231 is 25.6 µM (inactive); in the experiment with NCI-H23, 40.3 µM (inactive); in the experiment with NCI-H522 it was 15.5 µM (inactive); with RPMI-8226, 22 µM (inactive); in the experiment on SK-MEL-28, 35.9 µM (inactive); in the experiment with SNB-19 it was 50.7 µM (inactive). The values for the GI50 with SR and in the experiment on UACC-62 were 5.52 µM (inactive) and 28.5 µM (inactive), respectively.

As for `Cc1ccc2cc3c(ccc4ccccc43)c3c2c1CC3` [3-METHYLCHOLANTHRENE], the GI50 in the experiment on 786-0, in the experiment on A549, in the experiment with ACHN, with COLO 205, with DU-145 and in the experiment with HL-60 was > 100 µM (inactive) in each case. Further, the GI50 with HOP-62, in the experiment with HT-29, in the experiment on IGROV-1, in the experiment with K562, in the experiment on KM12 and in the experiment on M14 was > 100 µM (inactive) throughout. Further, the GI50 with MDA-MB-231, in the experiment with NCI-H23, in the experiment on NCI-H522, in the experiment with RPMI-8226, with SK-MEL-28 and with SNB-19 was > 100 µM (inactive) each time. Also, the GI50 in the experiment with SR and in the experiment on UACC-62 was > 100 µM (inactive) throughout.

In the case of `c1ccc(-c2cccc(-c3ccccn3)n2)nc1` [TERPYRIDINE], the GI50 is 0.368 µM (active) in the experiment with 786-0; 0.384 µM (active) in the experiment on A549; 0.385 µM (active) with ACHN; 0.254 µM (active) in the experiment with COLO 205; 0.324 µM (active) in the experiment with DU-145; 0.173 µM (active) in the experiment on HL-60. Also, the GI50 in the experiment with HOP-62 is 0.52 µM (active); in the experiment on HT-29 it was 0.5 µM (active); with IGROV-1, 0.48 µM (active); with K562, 0.345 µM (active); in the experiment with KM12, 0.507 µM (active); with M14, 0.164 µM (active). The GI50 with MDA-MB-231 was 0.397 µM (active); in the experiment on NCI-H23, 0.753 µM (active); with NCI-H522, 0.489 µM (active); in the experiment with RPMI-8226, 0.315 µM (active); in the experiment on SK-MEL-28 it was 0.706 µM (active); in the experiment on SNB-19 it was 0.935 µM (active). Also, the GI50 was 0.317 µM (active) in the experiment on SR and 0.736 µM (active) in the experiment with UACC-62.
